“Also recorded” adds a separate entry of the source.
Experiments:
[1] = Stability of Example compound 1 in solution with various excipients (HPLC); assay type: physicochemical; settings: 0.4 mg/mL
Experimental: Ethyl (2S)-2-[[(2S)-2-amino-4-[5-[bis(2-chloroethyl)amino]-1-methyl-benzimidazol-2-yl]butanoyl]amino]-4-methyl-pentanoate (Example compound 1; 19.2 mg, 16.7 mg free base) was dissolved in dimethylacetamide (419 μL) to give a 40 mg/mL stock solution.
Solutions of 0.4 mg/mL of Example compound 1 were prepared by diluting the stock solution in dimethylacetamide (40 mg/mL, 10 μL) with different solutions (990 μL) according to the Table 5 and the stability after 4 h at room temperature was analyzed by HPLC (Analytical HPLC was carried out on an Agilent Series 1100 system using a Kinetex XB C18 (2.6 μm, 3.0×50 mm) column with 0.1% TFA in H2O/CH3CN as mobile phase (acid conditions) (flow 1 mL/min). The excipients were reported in weight ratio excipient:Example compound 1 (free base).

[2] = system: SU-DHL-4 human lymphoma cell line xenografts; assay: Chicken embryo (in ovo) xenograft model, tumour weight; assay type: in vivo; settings: 8.4, 33.5, 167.5 μM
Experimental: Methods: Inoculation of Fertilized White Leghorn eggs was performed with 3×10^6 SU-DHL-4 tumour cells on day 9 (post-fertilisation). Viable eggs were injected with 100 μL of either Example compound 1 (8.4 μM (0.008 mg/kg), 33.5 μM (0.033 mg/kg), 167.5 μM (0.164 mg/kg)), bendamustine (8.4 μM (0.005 mg/kg), 33.5 μM (0.02 mg/kg), 167.5 μM (0.1 mg/kg)) or vehicle on day 11, 13, 15 and 17. On day 18, tumours were removed and weighed.

MM.1S cells = assay: DNA fragmentation, APO-BrdU TUNEL assay by FACS; assay type: cell-based, human
Experimental: Method: 1×10^6 MM.1S cells (CRL-2974, ATCC) were treated with Example compound 1 or Bendamustine at 0.006, 0.06, 0.6 or 6 μM for 24 h. After incubation, the cells were washed with PBS (10010-015, Gibco), fixed in Flow Cytometry Fixation Buffer (FC004, R&D Systems) for 10 min and stored in 70% ethanol at −20° C. overnight. The deoxythymidine analog (BrdUTP) was present in the experiment and served to label the DNA break sites. Next day, the cells were washed and stained using an APO-BrdU™ TUNEL Assay Kit, according to the manufacturer's protocol (A23210, Invitrogen), followed by the analysis using BD FACSCanto™ II. The percentage ofTUNEL positive cells indicates the percentage of cells with fragmented DNA.

[3] = system: hPBMC (Human Peripheral blood mononuclear cells); assay: In vitro cytotoxicity (CellTiter-Glo, 72 h) in hPBMC; assay type: cell-based; settings: stimulated with PHA-M and IL-2
Experimental: (§1) All cells were cultivated in RPMI medium 1640 (IX). All media was supplemented with […] penicillin/streptomycin, 10% heat inactivated FBS, 0.1 mM Sodium Pyruvate, 1×MEM NEAA (ThermoFisher) and 1 mM HEPES. The DERL-2 cells had higher FBS (20%) and 40 ng/mL IL-2 was added. hPBMCs were thawed and allowed to acclimatise overnight and then stimulated with 10 µg/mL PHA-M and 40 ng/mL IL-2 for 4 hours before being exposed to test compounds. All cells, except for hPBMCs, were grown to reach log phase before being exposed to the test compounds.
(§2) Test compounds were dissolved in 100% DMSO and added to a 384 assay plate. Additional DMSO was added to maintain the same final DMSO concentration (0.2%) in all wells. 25 μL cell suspension with a concentration of 100000 cells/mL was added to each well. The cells were cultured in a CO2 incubator at 37° C. for 72 h. Plates were equilibrated to room temperature for 30 minutes before adding 20 μL CellTiter-Glo® 2.0 (Promega) reagent to all wells. The plate was then allowed to stabilize for 20 minutes before recording the luminescence (Em filter 700 nm) in an Envision plate reader.

[4] = system: mitochondrial DNA (mtDNA) prepared from MM.1S cells; assay: Direct DNA damage, PCR amplification with mtDNA primers; assay type: biochemical, human; settings: 0.25 μM compound, 30 minutes at 37° C.
Experimental: Method: DNA was prepared from MM.1S cells by QIAGEN genomic tip 20/G according to protocol described in Furda et al., Methods Mol Biol, 2012. 1 μg of DNA was treated with 0.25 μM compound for 30 minutes at 37° C. DMSO was used as control treatment. 20 ng of the treated DNA was PCR amplified using Phusion Hot Start II High Fidelity PCR Master Mix (Thermo Scientific) and primers directed to either HPRT or primers directed to mitochondrial DNA (mtDNA) was used, generating 10.4 or 8.9 kb fragments, respectively. The PCR reactions were separated on a 1% agarose gel and visualized by ChemiDoc™ MP Imaging System (BioRad). Example compounds 1, 2 and 38 were investigated, as were compounds 18 and 20, which are metabolites of compound 1. They were compared with bendamustine, melphalan and DMSO control. The results for compounds 1, 2, 18 and 20 with the HPRT primers are shown in FIG. 4(A); the results with the mtDNA primers are shown in FIG. 4(B).

[5] = system: BJ Fibroblasts (normal cells); assay: In vitro cytotoxicity (CellTiter-Glo, 72 h) in BJ fibroblasts; assay type: cell-based, human
Experimental: as §1, §2

CCOC(=O)[C@H](CC(C)C)NC(=O)[C@@H](N)CCc1nc2cc(N(CCCl)CCCl)ccc2n1C [Example compound 1, Ethyl (2S)-2-[[(2S)-2-amino-4-[5-[bis(2-chloroethyl)amino]-1-methyl-benzimidazol-2-yl]butanoyl]amino]-4-methyl-pentanoate]
Ex 1 remaining after 4 h at room temp (%) ([1]; 2-Hydroxypropyl-β-cyclodextrin (Kleptose), Ultrapure water (MilliQ), weight ratio excipient:Ex 1 5): 78% | Ex 1 remaining after 4 h at room temp (%) ([1]; 2-Hydroxypropyl-β-cyclodextrin (Kleptose), Ultrapure water (MilliQ), weight ratio excipient:Ex 1 10): 84% | Ex 1 remaining after 4 h at room temp (%) ([1]; 2-Hydroxypropyl-β-cyclodextrin (Kleptose), Ultrapure water (MilliQ), weight ratio excipient:Ex 1 20): 85% | Ex 1 remaining after 4 h at room temp (%) ([1]; 2-Hydroxypropyl-γ-cyclodextrin, Ultrapure water (MilliQ), weight ratio excipient:Ex 1 5): 82% | Ex 1 remaining after 4 h at room temp (%) ([1]; 2-Hydroxypropyl-γ-cyclodextrin, Ultrapure water (MilliQ), weight ratio excipient:Ex 1 10): 86% | Ex 1 remaining after 4 h at room temp (%) ([1]; 2-Hydroxypropyl-γ-cyclodextrin, Ultrapure water (MilliQ), weight ratio excipient:Ex 1 20): 79% | Ex 1 remaining after 4 h at room temp (%) ([1]; Betadex Sulfobutyl Ether Sodium (Dexolve), Ultrapure water (MilliQ), weight ratio excipient:Ex 1 5): 99% | Ex 1 remaining after 4 h at room temp (%) ([1]; Betadex Sulfobutyl Ether Sodium (Dexolve), Ultrapure water (MilliQ), weight ratio excipient:Ex 1 10): 101% | Ex 1 remaining after 4 h at room temp (%) ([1]; Betadex Sulfobutyl Ether Sodium (Dexolve), Ultrapure water (MilliQ), weight ratio excipient:Ex 1 20): 98% | Ex 1 remaining after 4 h at room temp (%) ([1]; excipient None, solvent 0.9% Saline, ratio 0): 93% | Ex 1 remaining after 4 h at room temp (%) ([1]; excipient None, solvent 5% Glucose, ratio 0): 80% | Ex 1 remaining after 4 h at room temp (%) ([1]; excipient None, solvent DPBS, ratio 0): 10% | Ex 1 remaining after 4 h at room temp (%) ([1]; excipient None, solvent Dimethylacetamide, ratio 0): 103% | Ex 1 remaining after 4 h at room temp (%) ([1]; excipient None, solvent Ultrapure water (MilliQ), ratio 0): 85% | Ex 1 remaining after 4 h at room temp (%) ([1]; γ-Cyclodextrin, Ultrapure water (MilliQ), weight ratio excipient:Ex 1 5): 78% | Ex 1 remaining after 4 h at room temp (%) ([1]; γ-Cyclodextrin, Ultrapure water (MilliQ), weight ratio excipient:Ex 1 10): 82% | Ex 1 remaining after 4 h at room temp (%) ([1]; γ-Cyclodextrin, Ultrapure water (MilliQ), weight ratio excipient:Ex 1 20): 86% | effect on tumour weight / tumour growth (in words) [2]: dose dependent effect on tumour weight; also recorded: particularly effective at inhibiting tumor growth | cells with DNA breaks (MM.1S cells; 0.6 μM for 24 h): > 90% | dose response effect on DNA damage (TUNEL positive cells) (MM.1S cells; 0.006, 0.06, 0.6 or 6 μM for 24 h): induced DNA damage in a dose-dependent manner | IC50 [3]: 5.4 nM | DNA damage on mitochondrial DNA (8.9 kb PCR band) [4]: strong DNA damaging effect | IC50 [5]: 1070 nM

— patent US20260199294A1, “PEPTIDE DRUG CONJUGATES” (Oncopeptides Innovation AB, priority 2022, published 2026)
